# Several values for one entry are separate records, joined by “and”; a condition that tells them apart may be missing. Equal values may be shown once. Where a name gives a salt, the structure may show the parent alone. Read-outs that look alike come from different tables or passages of the source.
# Experiments:
# in vivo = assay: in vivo; set-up: species or system male Balb/c mice; settings: mouse, 10 mg/kg
# Experimental: Method for FIG. 12. […] The small intestine with content of each animal for were harvested and placed per animal per tissue into a tube. The small intestine with content samples were snap frozen in dry ice and then stored at −80° C. until bioanalysis. All the samples were labeled with detailed information such as study number, animal number, matrix, and time points of collection and date of collection. In addition, the extra animals obtained for the study, but not placed on study were used for collection of small intestine with content. The resulting small intestine with content samples were then applied to the development of the bioanalytical method and sample bioanalysis in this study. Bioanalytical analysis was performed on samples by LC-MS/MS.
# For analyzing the contents of the small intestine, small intestine samples were homogenized by adding saline (1 g small intestine: 5 mL saline). Small intestine homogenates (50 μL) were transferred to tubes and 250 μL internal standard (IS) working solution (50 ng/mL Carvedilol) was added to each sample. After vortexing for 1 minute and centrifuging for 5 minutes at 15,000 rpm, 100 μL aliquots of supernatant were transferred to glass autosampler vials.
# Method for FIG. 13. […] The ratios versus time are shown.
# At 1 hour, the concentration in the small intestine peaked at 38,941±4703 ng/gram of tissue (FIG. 12).
# [1] = tested on: LPS-induced MCP-1 release, NR8383 cells; assay: LPS-induced MCP-1 release in NR8383 rat macrophages (ELISA); type: cell-based
# Experimental: Method for FIG. 7. […] After 8 hours, supernatants were collected for MCP-1 measurement by ELISA. MCP-1 was measured using an immunoassay kit according to manufacturer's instructions (Thermo Scientific, Rockford. IL).
# Method for FIG. 8. MCP-1 assays were performed using PMX-60056. Rat macrophages (NR8383) were pretreated with […] with concentrations shown for 45 minutes, followed by 1 μg/ml LPS treatment from E. coli (Sigma, St. Louis, MO) for 8 hours. After 8 hours, supernatants were collected for MCP-1 measurement by ELISA. MCP-1 was measured using an immunoassay kit according to manufacturer's instructions (Thermo Scientific, Rockford, IL).
# The MCP-1 inhibition assay was performed according to the Method described for FIG. 7.
# The MCP-1 inhibition assay was performed according to the Method described for FIG. 8.
# (§1) PDE4 and PDE3 inhibition results in subsequent down-regulation of pro-inflammatory cytokines/chemokines and its regulators, and experiments were conducted to confirm such down-regulation by brilacidin in ex vivo cell-based assays. In these assays, cells were exposed to brilacidin 45 minutes before an 8-hour lipopolysaccharide (LPS) stimulation in the presence of brilacidin; cytokine/enzyme concentrations were determined by ELISA using a standard immunoassay kit.
# [2] = tested on: Ulcerative Proctosigmoiditis/Ulcerative Proctitis (UP/UPS); assay: Phase 2 clinical trial CTIX-BRI-206 in Ulcerative Proctitis/Ulcerative Proctosigmoiditis; type: in vivo, human
# Experimental: In a Phase 2 study (CTIX-BRI-206), clinical remission (with Endoscopic response) was achieved after 6 weeks of treatment in >50% subjects in each treatment cohort (50 mg, 100 mg, and 200 mg brilacidin, as daily retention enema) (FIG. 21, Panel A). Inflammatory biomarkers IL-1β and IL-6 were reduced in colonic tissue biopsies collected at Week 6 (Day 42) compared to those biopsies collected at baseline (FIG. 21, Panel B).
# [3] = tested on: LPS-induced IL-6 release, NR8383 cells; assay: LPS-induced IL-6 release in NR8383 rat macrophages (ELISA); type: cell-based; settings: Macrophage
# Experimental: Method for FIG. 10. […] After 8 hours, supernatants were collected for IL-6 measurement by ELISA using immunoassay kit (R&D Systems, Minneapolis, MN) according to manufacturer's instructions.
# The inhibition of IL-6 induction assay was performed according to the Method described for FIG. 10.
# as §1
# [4] = tested on: acetic acid-induced colitis; type: in vivo; settings: for reduction of UC score: not significantly
# Experimental: Method for FIG. 14. […] Balb/c mice were fasted for 24 hours. Colitis was induced by injecting 200 μL of 4% acetic acid into the rectum. […] Another group of animals were treated with 5-ASA (5-aminosalicylic acid or mesalamine), and another received no treatment. Seven days after the first dose, five cm of intestine were cleaned in cold saline then weighed.
# Method for FIG. 15. […] Balb/c mice were fasted for 24 hours. Colitis was induced by injecting 200 μL of 4% acetic acid into the rectum. […] Another group of animals were treated with 5-ASA (5-aminosalicylic acid or mesalamine), and another received no treatment. Seven days after the first dose the colon was examined visually for mucosal injury and scored according to the Table below.
# Briefly, colitis was induced by injecting 4% acetic acid into the rectum.
# human PDE3A = human PDE3A (Homo sapiens, UniProt Q14432); assay: PDE-Glo phosphodiesterase assay, PDE3; type: biochemical; settings: 2.75 ng PDE3A, 1 μM cAMP substrate, 15 min pre-incubation; read-out: IC50, inhibition of PDE3
# Experimental: Method for FIG. 3. […] The compounds and PDE3A were mixed and pre-incubated at room temperature for 15 minutes. Substrate was added and the reaction was incubated for 7 minutes at room temperature. Data are presented as luminescence units (RLU).
# Method for FIG. 4. Phosphodiesterase inhibition assays of PDE3 were performed using PMX-60056. The PDE-Glo phosphodiesterase assay (Promega, Madison, WI, USA Catalog No. V1361) was performed according to manufacturer's instruction using 2.75 ng of PDE3A, 1 μM cAMP substrate and PMX60056. The compounds and PDE3A were mixed and pre-incubated at room temperature for 15 minutes. Substrate was added and the reaction was incubated for 7 minutes at room temperature. Data are presented as luminescence units (RLU).
# The compounds and PDE3A were mixed and pre-incubated at room temperature for 15 minutes. Substrate was added and the reaction was incubated. […]
# as §1
# Chain of human PDE3A (Q14432 whole entry): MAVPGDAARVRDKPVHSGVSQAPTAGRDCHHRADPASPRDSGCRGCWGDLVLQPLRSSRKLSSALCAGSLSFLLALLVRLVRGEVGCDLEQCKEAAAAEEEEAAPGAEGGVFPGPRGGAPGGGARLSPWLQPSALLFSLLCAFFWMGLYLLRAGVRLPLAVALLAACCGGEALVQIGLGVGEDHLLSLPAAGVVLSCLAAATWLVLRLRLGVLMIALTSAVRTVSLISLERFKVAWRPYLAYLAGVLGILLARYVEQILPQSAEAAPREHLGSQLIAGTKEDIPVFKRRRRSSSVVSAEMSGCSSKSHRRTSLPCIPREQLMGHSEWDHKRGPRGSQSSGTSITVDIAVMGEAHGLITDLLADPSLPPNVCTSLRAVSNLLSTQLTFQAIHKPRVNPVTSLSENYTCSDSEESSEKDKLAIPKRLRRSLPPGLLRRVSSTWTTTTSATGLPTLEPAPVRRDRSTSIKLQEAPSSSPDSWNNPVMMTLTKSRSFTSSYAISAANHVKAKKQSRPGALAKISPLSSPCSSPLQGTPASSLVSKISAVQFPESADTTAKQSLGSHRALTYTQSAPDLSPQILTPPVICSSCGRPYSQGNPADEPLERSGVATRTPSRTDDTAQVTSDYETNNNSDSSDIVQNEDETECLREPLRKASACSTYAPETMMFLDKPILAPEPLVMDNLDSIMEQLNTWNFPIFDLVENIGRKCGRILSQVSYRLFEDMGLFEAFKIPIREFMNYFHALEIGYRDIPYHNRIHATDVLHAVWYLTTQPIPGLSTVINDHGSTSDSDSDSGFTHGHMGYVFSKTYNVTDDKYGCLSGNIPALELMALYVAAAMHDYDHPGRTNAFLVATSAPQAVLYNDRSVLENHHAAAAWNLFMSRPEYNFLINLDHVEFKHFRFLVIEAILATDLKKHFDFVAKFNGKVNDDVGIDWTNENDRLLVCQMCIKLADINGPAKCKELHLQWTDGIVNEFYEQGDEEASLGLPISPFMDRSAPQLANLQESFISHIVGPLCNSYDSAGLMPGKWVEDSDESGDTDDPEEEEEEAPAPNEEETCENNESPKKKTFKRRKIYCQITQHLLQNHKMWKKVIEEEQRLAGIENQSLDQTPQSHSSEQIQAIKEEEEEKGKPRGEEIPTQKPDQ
structure (smiles),measurement,setting,value
"N=C(N)NCCCCC(=O)Nc1cc(C(F)(F)F)cc(NC(=O)c2cc(C(=O)Nc3cc(C(F)(F)F)cc(NC(=O)CCCCNC(=N)N)c3O[C@@H]3CCNC3)ncn2)c1O[C@@H]1CCNC1 [PMX-30063, N^4,N^6-bis(2-((R)-pyrrolidin-3-yloxy)-3-((4-carbamoylbutyl)guanidine)-5-(trifluoromethyl)phenyl)pyrimidine-4,6-dicarboxamide tetrahydrochloride salt]",total exposure (AUC) in the blood upon oral administration,"in vivo; male, Balb/c",less than 0.5%
same,Cmax,"in vivo; male, Balb/c, po",38900 ng/g
same,Kp,"in vivo; male, Balb/c, po",2240 to 4320
same,Tmax,"in vivo; male, Balb/c, po",1 h
same,half-life,"in vivo; male, Balb/c, po",47.4 min
same,AUC(0-t),in vivo; po,86089 ng·h/g
same,AUC(0-∞),in vivo; po,89525 ng·h/g
same,MRT(0-∞),in vivo; po,1.52 H
same,effect on MCP-1 induction after LPS stimulation (in words),"[1]; NR8383, 45 min pretreatment, LPS 1 μg/ml 8 h",strong inhibition
same,IC50,"[1]; Rattus norvegicus, Macrophage, NR8383 cells, ELISA, 45 min pretreatment, 8-hour LPS, read-out: IC50, inhibition of LPS-induced MCP-1 release",750 nM
same,decrease in MCP-1 levels,"[1]; at 0.5 μM, NR8383, LPS 1 μg/ml 8 h",≥ 25%
same,IL-1β in colonic tissue biopsies vs baseline (in words),[2]; Week 6 (Day 42),reduced
same,IL-6 in colonic tissue biopsies vs baseline (in words),[2]; Week 6 (Day 42),reduced
same,subjects achieving clinical remission (with Endoscopic response),"[2]; after 6 weeks, each cohort (50 mg, 100 mg, 200 mg, daily retention enema)",> 50%
same,IC50,"[3]; NR8383 cells, ELISA, 45 min pretreatment, 8-hour LPS, read-out: IC50, inhibition of LPS-induced IL-6 release",274 nM
same,inhibition at 0.5 µM,"[3]; at 0.5 μM, NR8383, LPS 1 μg/ml 8 h, read-out: decrease in IL-6 levels / inhibition of LPS induced IL-6 production",~50%
same,reduction of UC score,[4]; 40 mg/kg (so in the source) intrarectally,67%
same,reduction of median UC score,[4]; 100 mg/kg intrarectally,33%
same,reduction of UC score,[4]; 200 mg/kg intrarectally,67%
same,reduction of intestine weights compared to untreated controls,[4]; 400 mg/kg intrarectally,17%
same,ulcerative colitis score compared to untreated controls (in words),[4]; 400 mg/kg intrarectally,significantly reduced
same,tolerability (in words),"[4]; mouse, in vivo",well-tolerated
same,ulcerative colitis score (in words),"[4]; rectal administration, 100, 200, 400 mg/kg",dose dependent decrease
same,intestine weights compared to untreated controls (in words),"[4]; rectal administration, 100-400 mg/kg once daily","reduced, but not significantly"
same,IC50,human PDE3A,~1800 nM and 1800 nM

# Reference: patent US20230310435A1, “HOST DEFENSE PROTEIN (HDP) MIMETICS FOR PROPHYLAXIS AND/OR TREATMENT OF INFLAMMATORY DISEASES OF THE GASTROINTESTINAL TRACT” (priority 2015, published 2023)
